# Test results as given in patent publication US9770439B2, “Hepatitis C virus inhibitors” (priority 2013, dated 2017).
# Like-named read-outs stand apart in the source and are kept apart here.
# Tests used:
# [1] = tested on: HCV replicon, genotype-1a variant with glutamine 30 changed to glutamate in the NS5A protein; assay type: cell-based
# Source text: The NS5A synergistic inhibitory effect of test compounds can be determined using various amounts of an NS5A-targeting compound with titration of a second compound of interest. […] In one embodiment, the HCV genotype strain can be genotype 1a containing a change at amino acid 30 of the NS5A protein consisting of glutamine to glutamate. The test compound can be chosen from compounds listed above or from others present in the literature.
# [2] = tested on: HCV replicon, genotype 1a L31V variant with leucine 31 changed to valine in the NS5A protein; assay type: cell-based; settings: BMS-790052 titrated with N47 fixed at 200 nM, genotype 1a L31V
# [3] = tested on: HCV replicon, genotype 1a Y93H variant with tyrosine 93 changed to histidine in the NS5A protein; assay type: cell-based; settings: BMS-790052 titrated with N47 fixed at 200 nM, genotype 1a Y93H
# Procedure: Combinations can be examined for synergistic activity using a variety of putative NS5A-targeting compounds and a variety of test compounds. […] The test compound can be chosen from compounds exemplified below, which were prepared by methods known in the art, or from others disclosed in the literature.
# Similarly, BMS-790052 can be tested singly and in combination with a fixed amount of compound N47 in the HCV replicon cell based assay consisting of the genotype 1a Y93H variant with tyrosine 93 changed to histidine in the NS5A protein.
# [4] = tested on: HCV replicon, genotype-1a variant with glutamine 30 changed to glutamate in the NS5A protein; settings: cited from earlier work; for EC50: genotype 1a Q30E replicon
# [5] = compound alone, read-out: EC50, titrated singly
# [6] = ranking of synergist activity, test compound titrated with BMS-790052 fixed at 200 nM, genotype 1a Q30E replicon
Compound,Fold-Synergistic 1a (Q30E) [1],further results
CC1([C@H](NC(=O)C2CCC(F)(F)CC2)c2cc3ccc(C#Cc4ccc5nc([C@@H](NC(=O)C6CCC(F)(F)CC6)C6(C)CC6)[nH]c5c4)cc3[nH]2)CC1 [Compound B67],>100,–
O=C(C(=O)N1C(c2nc(-c3ccc(-c4ccc(-c5c[nH]c(C6C[C@@H]7C[C@@H]7N6C(=O)C(=O)N6CCC(F)(F)CC6)n5)cc4)cc3)c[nH]2)C[C@@H]2C[C@@H]21)N1CCC(F)(F)CC1 (some centres unmarked) [Compound W-243],>100,–
CC1([C@H](NC(=O)[C@]2(C)CCCC[C@@H]2O)c2ncc(-c3ccc(-c4ccc(-c5cnc([C@@H](NC(=O)[C@]6(C)CCCC[C@@H]6O)C6(C)CC6)[nH]5)cc4)cc3)[nH]2)CC1 [Compound Y-116],>100,–
"COC(=O)N[C@H](C(=O)N1CCC[C@H]1c1ncc(-c2ccc(-c3ccc(-c4cnc([C@@H]5CCCN5C(=O)[C@@H](NC(=O)OC)C(C)C)[nH]4)cc3)cc2)[nH]1)C(C)C [BMS-790052, reference compound]",–,"synergistic inhibitory effect with the combination (fold) [2]: > 100 fold; synergistic inhibitory effect for the combination (fold) [3]: > 100 fold; reciprocal synergistic inhibitory effect for the combination (fold) ([4]; BMS-790052 titrated with P-55 fixed at 200 nM, genotype 1a Q30E): ~100 fold; EC50 ([4]; P-55 fixed at 200 nM, read-out: EC50 of BMS-790052 in the presence of a fixed amount of P-55): ~2 nM; EC50 [4, 5]: ~200 nM"
"COc1ccccc1C(O)C1(C(=O)N[C@H](c2nc(-c3ccc(-c4ccc(-c5c[nH]c([C@@H](NC(=O)C6(C(O)c7ccccc7OC)CC6)C(C)(C)C)n5)cc4)cc3)c[nH]2)C(C)(C)C)CC1 (single isomer, unassigned) [Compound N-135B]",>100,–
"COC(C)(CCO)C(=O)N[C@H](c1nc(-c2ccc(-c3ccc(-c4c[nH]c([C@@H](NC(=O)C(C)(CCO)OC)C(C)(C)C)n4)cc3)cc2)c[nH]1)C(C)(C)C (single isomer, unassigned) [Compound W-258]",>100,–
CC(C)CC(=O)N[C@H](c1ncc(-c2ccc(-c3ccc(-c4cnc([C@@H](NC(=O)CC(C)C)C(C)C)[nH]4)cc3)cc2)[nH]1)C(C)C [Compound P-55],–,"synergistic inhibitory effect with the combination (fold) ([4]; P-55 titrated with BMS-790052 fixed at 200 nM, genotype 1a Q30E): > 100 fold; EC50 ([4]; BMS-790052 fixed at 200 nM, read-out: EC50 of P-55 in the presence of a fixed amount of BMS-790052): ~2 nM; EC50 [4, 5]: > 200 nM"
CC(C)(C)C(=O)NC(c1ncc(-c2ccc(-c3ccc(-c4cnc([C@@H](NC(=O)C(C)(C)C)C5(C)CCC5)[nH]4)cc3)cc2)[nH]1)C1(C)CCC1 (some centres unmarked) [Compound Y-39],>100,–
CCOC(=O)NC1(C(=O)N[C@H](c2nc(-c3ccc(-c4ccc(-c5c[nH]c([C@@H](NC(=O)C6(NC(=O)OCC)CCCCC6)C(C)(C)C)n5)cc4)cc3)c[nH]2)C(C)(C)C)CCCCC1 [Compound W-250],>100,–
"COc1ccccc1C(O)C1(C(=O)N[C@H](c2nc(-c3ccc(-c4ccc(-c5c[nH]c([C@@H](NC(=O)C6(C(O)c7ccccc7OC)CC6)C(C)(C)C)n5)cc4)cc3)c[nH]2)C(C)(C)C)CC1 (single isomer, unassigned) [Compound N-135A]",>100,–
"COc1ccccc1C(O)C1(C(=O)N[C@H](c2nc(-c3ccc(-c4ccc(-c5c[nH]c([C@@H](NC(=O)C6(C(O)c7ccccc7OC)CC6)C(C)(C)C)n5)cc4)cc3)c[nH]2)C(C)(C)C)CC1 (single isomer, unassigned) [Compound N-135C]",>100,–
"COC(C)(CCO)C(=O)N[C@H](c1nc(-c2ccc(-c3ccc(-c4cnc([C@@H](NC(=O)C(C)(CCO)OC)C(C)(C)C)[nH]4)cc3)cc2)c[nH]1)C(C)(C)C (single isomer, unassigned) [Compound W-259]",>100,–
COC(c1ccccc1)C1(C(=O)N[C@H](c2nc(-c3ccc(-c4ccc(-c5c[nH]c([C@@H](NC(=O)C6(C(OC)c7ccccc7)CC6)C(C)(C)C)n5)cc4)cc3)c[nH]2)C(C)(C)C)CC1 (some centres unmarked) [Example N-137],–,"Fold-Synergistic 1a (Q30E) [1, 6]: <10"
CC(C)(C)C(=O)N[C@H](c1ncc(-c2ccc(-c3ccc(-c4cnc([C@@H](NC(=O)C(C)(C)C)C(C)(C)CF)[nH]4)cc3)cc2)[nH]1)C(C)(C)CF [Compound Y-68],–,"Fold-Synergistic 1a (Q30E) [1, 6]: >100"
